Here are results for 16 compounds from patent US10800772B2 (Gilead Sciences, Inc., priority 2016, dated 2020).

pEC50: −log10 of the molar value. Like-named read-outs stand apart in the source and are kept apart here.

Data set [1] has as its system HIV-IIIb IN T174I DE. In words: Antiviral assay in MT4 cells, HIV-IIIb IN T174I DE virus (from dose escalation passaging). The format is cell-based, HIV-1. In a few lines:
(§1)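 Luminescence from CellTiter-Glo after a 5-day culture served as the measure of HIV-1 replication in MT4 cells. Cells were infected beforehand for 3 h with HIV-IIIb (0.004 m.o.i.) and exposed to ten 3-fold compound dilutions. EC50 corresponds to a 50% signal decrease.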

Data set [2] in a line: Hum MS stability (human microsomal stability half-life). The following applies: human microsomes.
The subject of data set [3] is HIV-IIIb IN T174I BT. Put plainly: Antiviral assay in MT4 cells, HIV-IIIb IN T174I BT virus (from viral breakthrough). The data set is classed as cell-based, HIV-1. The gist of the method:
as §1

In data set [4] the test system is HIV-IIIb (wildtype). In words: Antiviral assay in MT4 cells, HIV-IIIb wildtype. The format is cell-based, HIV-1. The following applies: read-out: WT EC50. In a few lines: as §1
The mark [5] stands for this setting: Human immunodeficiency virus 1, IIIB, MT4, 120 h, read-out: T174I DE EC50, MT4 cells, HIV-IIIb IN T174I DE (dose escalation), 5 days, CellTiter-Glo.
The mark [6] stands for this setting: Human immunodeficiency virus 1, IIIB, MT4, 120 h, read-out: T174I BT EC50, MT4 cells, HIV-IIIb IN T174I BT (viral breakthrough), 5 days, CellTiter-Glo.
The mark [7] stands for this setting: Human immunodeficiency virus 1, IIIB, MT4, 120 h.

The pEC50 is the negative decadic logarithm of the EC50, by convention in mol/L. As a reminder, the half-life is the time in which the quantity being followed falls by half. A lower half-life goes with rapid decline. Turning to `CCN1CCN(c2nn(C)c3ccc(-c4nc5cc(C)c([C@H](OC(C)(C)C)C(=O)O)c(-c6ccc(Cl)cc6)c5s4)cc23)CC1` [Compound 133, (S)-2-(tert-butoxy)-2-(7-(4-chloro-phenyl)-2-(3-(4-ethylpiperazin-1-yl)-1-methyl-1H-indazol-5-yl)-5-methylbenzo[d]thiazol-6-yl) acetic acid], the pEC50 in data set [1] (setting [5]) was 6.36; in data set [3] (setting [6]), 6.36; in data set [4] (setting [7]), 8.52. Further, in data set [2], the half-life came out at 5.82 h.
Consider `Cc1cc2nc(-c3ccc4c(n3)c(C3CCN([C@H]5C[C@@H](O)C5)CC3)nn4C)sc2c(-c2ccc(Cl)cc2)c1[C@H](OC(C)(C)C)C(=O)O` [Compound 188, (S)-2-(tert-butoxy)-2-(7-(4-chloro-phenyl)-2-(3-(1-((1s,3s)-3-hydroxy-cyclobutyl)piperidin-4-yl)-1-methyl-1H-pyrazolo[4,3-b]pyridin-5-yl)-5-methylbenzo[d]thiazol-6-yl) acetic acid], for which the negative logarithm of the EC50 (pEC50) was 6.41 in data set [1] (setting [5]), 6.71 in data set [3] (setting [6]) and 7.96 in data set [4] (setting [7]). The compound also gave a half-life in data set [2] of 2.53 h.
On to `Cc1cc2nc(-c3ccc4c(n3)c(N3CCN(C5COC5)CC3)nn4C)sc2c(-c2ccc(Cl)cc2)c1[C@H](OC(C)(C)C)C(=O)O` [Compound 15, (S)-2-(tert-butoxy)-2-(7-(4-chlorophenyl)-5-methyl-2-(1-methyl-3-(4-(oxetan-3-yl)piperazin-1-yl)-1H-pyrazolo[4,3-b]pyridin-5-yl)benzo[d]thiazol-6-yl)acetic Acid], for which the results for the pEC50 in data set [1] (setting [5]), in data set [3] (setting [6]) and in data set [4] (setting [7]) were 5.51, 6.18 and 8.40, respectively. In data set [2], this compound gave a half-life of 2.83 h.
Consider `Cc1cc2nc(-c3ccc4c(c3)c(C3CCN(C5CCOC5)CC3)nn4C)sc2c(-c2ccc(Cl)cc2)c1[C@H](OC(C)(C)C)C(=O)O` (stereo in doubt) [Compound 26, (S)-2-(tert-butoxy)-2-(7-(4-chlorophenyl)-5-methyl-2-(1-methyl-3-(1-((S)-tetrahydrofuran-3-yl)piperidin-4-yl)-1H-indazol-5-yl)benzo[d]thiazol-6-yl)acetic Acid], for which the results for the pEC50 in data set [1] (setting [5]), in data set [3] (setting [6]) and in data set [4] (setting [7]) were 6.57, 6.89 and 8.40, respectively. Also, the half-life in data set [2] stood at 4.68 h.
For `Cc1cc2nc(-c3ccc4c(c3)c(C3CCN(C5CS(=O)(=O)C5)CC3)nn4C)sc2c(-c2ccc(Cl)cc2)c1[C@H](OC(C)(C)C)C(=O)O` [Compound 10, (S)-2-(tert-butoxy)-2-(7-(4-chlorophenyl)-2-(3-(1-(1,1-dioxidothietan-3-yl)piperidin-4-yl)-1-methyl-1H-indazol-5-yl)-5-methylbenzo[d]thiazol-6-yl)acetic Acid], in that order: 6.52, 6.56, 8.00 and 3.58 h.
As to `[2H]C([2H])([2H])C(O[C@H](C(=O)O)c1c(C)cc2nc(-c3ccc4c(c3)c(C3CCN(C5COC5)CC3)nn4C)sc2c1-c1ccc(Cl)cc1)(C([2H])([2H])[2H])C([2H])([2H])[2H]` [Compound 21, (S)-2-(7-(4-chlorophenyl)-5-methyl-2-(1-methyl-3-(1-(oxetan-3-yl)piperidin-4-yl)-1H-indazol-5-yl)benzo[d]thiazol-6-yl)-2-((2-(methyl-d3)propan-2-yl-1,1,1,3,3,3-d6)oxy)acetic Acid], the pEC50 in data set [1] (setting [5]) was 6.62; in data set [3] (setting [6]) it was 6.91; in data set [4] (Human immunodeficiency virus 1, 120 h, MT4 cells, HIV-IIIb wildtype, 5 days, CellTiter-Glo), 8.40. The compound further showed a half-life in data set [2] of 3.3 h.
Consider `CC(=O)N1CC[C@H](N2CCC(c3nn(C)c4ccc(-c5nc6cc(C)c([C@H](OC(C)(C)C)C(=O)O)c(-c7ccc(Cl)cc7)c6s5)nc34)CC2)C1` [Compound 170, (S)-2-(2-(3-(1-((S)-1-acetyl-pyrrolidin-3-yl)piperidin-4-yl)-1-methyl-1H-pyrazolo[4,3-b]pyridin-5-yl)-7-(4-chlorophenyl)-5-methylbenzo [d]thiazol-6-yl)-2-(tert-butoxy) acetic acid], for which the pEC50 in data set [1] (setting [5]) was 6.95; in data set [3] (setting [6]), 7.24; in data set [4] (setting [7]) it was 8.70. In addition, the half-life in data set [2] was 0.533 h.
The like results for `Cc1cc2nc(-c3ccc4c(c3)c(N3CCN(CC5CC5)CC3)nn4C)sc2c(-c2ccc(Cl)cc2)c1[C@H](OC(C)(C)C)C(=O)O` [Compound 100, (S)-2-(tert-butoxy)-2-(7-(4-chlorophenyl)-2-(3-(4-(cyclopropylmethyl)piperazin-1-yl)-1-methyl-1H-indazol-5-yl)-5-methylbenzo[d]thiazol-6-yl)acetic acid] were, in that order, 5.45, 5.73, 8.00 and 3.23 h.
In the case of `CCn1nc(C2CCN(C3COC3)CC2)c2cc(-c3nc4cc(C)c([C@H](OC(C)(C)C)C(=O)O)c(-c5ccc(Cl)cc5)c4s3)ccc21` [Compound 35, (S)-2-(tert-butoxy)-2-(7-(4-chlorophenyl)-2-(1-ethyl-3-(1-(oxetan-3-yl)piperidin-4-yl)-1H-indazol-5-yl)-5-methylbenzo[d]thiazol-6-yl)acetic acid], the negative-log EC50 (pEC50) in data set [1] (setting [5]) is 6.62; in data set [3] (setting [6]), 7.08; in data set [4] (setting [7]) it was 8.40.
As to “(S)-2-(2-(3-(1- ((R)-1-acetyl- pyrrolidin-3-yl) piperidin-4-yl)- 1-methyl-1H- pyrazolo[4,3-b] pyridin-5-yl)-7- (4-chlorophenyl)- 5-methylbenzo[d] thiazol-6-yl)-2- (tert-butoxy) acetic acid [Compound 169]”, the pEC50 in data set [1] (MT4 cells, HIV-IIIb IN T174I DE (dose escalation), 5 days, CellTiter-Glo, read-out: T174I DE EC50) is 7.07; in data set [3] (MT4 cells, HIV-IIIb IN T174I BT (viral breakthrough), 5 days, CellTiter-Glo, read-out: T174I BT EC50), 7.44; in data set [4] (MT4 cells, HIV-IIIb wildtype, 5 days, CellTiter-Glo), 8.70.
Turning to `Cc1cc2nc(-c3ccc4c(c3)c(C3CN(C)C3)nn4C)sc2c(-c2ccc(Cl)cc2)c1[C@H](OC(C)(C)C)C(=O)O` [Compound 57, (S)-2-(tert-butoxy)-2-(7-(4-chlorophenyl)-5-methyl-2-(1-methyl-3-(1-methylazetidin-3-yl)-1H-indazol-5-yl)benzo[d]thiazol-6-yl)acetic acid], the pEC50 in data set [1] (setting [5]) is 5.38; in data set [3] (setting [6]), 5.37; in data set [4] (setting [7]), 7.89.
For `CC(=O)N1CC(N2CCC(c3nn(CCN(C)C)c4ccc(-c5nc6cc(C)c([C@H](OC(C)(C)C)C(=O)O)c(-c7ccc(Cl)cc7)c6s5)cc34)CC2)C1` [Compound 33, (S)-2-(2-(3-(1-(1-acetylazetidin-3-yl)piperidin-4-yl)-1-(2-(dimethylamino)ethyl)-1H-indazol-5-yl)-7-(4-chlorophenyl)-5-methylbenzo[d]thiazol-6-yl)-2-(tert-butoxy)acetic acid], in that order: 5.99, 6.23 and 8.30.
For the compound `Cc1cc2nc(-c3ccc4c(c3)c(N3CCN(C5(C)COC5)CC3)nn4C)sc2c(-c2ccc(Cl)cc2)c1[C@H](OC(C)(C)C)C(=O)O` [Compound 207, (S)-2-(tert-butoxy)-2-(7-(4-chloro-phenyl)-5-methyl-2-(1-methyl-3-(4-(3-methyloxetan-3-yl)piperazin-1-yl)-1H-indazol-5-yl)benzo[d]thiazol-6-yl)acetic acid], the results for the pEC50 in data set [1] (setting [5]), in data set [3] (setting [6]) and in data set [4] (setting [7]) were 6.16, 6.42 and 8.40, respectively.
For `CN[C@@H]1CCN(c2nn(C)c3ccc(-c4nc5cc(C)c([C@H](OC(C)(C)C)C(=O)O)c(-c6ccc(Cl)cc6)c5s4)cc23)C1` [Compound 95, (S)-2-(tert-butoxy)-2-(7-(4-chlorophenyl)-5-methyl-2-(1-methyl-3-((R)-3-(methylamino)pyrrolidin-1-yl)-1H-indazol-5-yl)benzo[d]thiazol-6-yl)acetic acid], in that order: 4.94, 5.76 and 7.39.
For `Cc1cc2nc(-c3ccc4c(c3)c(C3CCN(C5COC5)CC3)nn4CC(F)(F)F)sc2c(-c2ccc(Cl)cc2)c1[C@H](OC(C)(C)C)C(=O)O` [Compound 41, (S)-2-(tert-butoxy)-2-(7-(4-chlorophenyl)-5-methyl-2-(3-(1-(oxetan-3-yl)piperidin-4-yl)-1-(2,2,2-trifluoroethyl)-1H-indazol-5-yl)benzo[d]thiazol-6-yl)acetic acid], in that order: 5.28, 5.30 and 5.42.
As to `COC(=O)N1CC(N2CCC(c3nn(C)c4ncc(-c5nc6cc(C)c([C@H](OC(C)(C)C)C(=O)O)c(-c7ccc(Cl)cc7)c6s5)cc34)CC2)C1` [Compound 114, (S)-2-(tert-butoxy)-2-(7-(4-chlorophenyl)-2-(3-(1-(1-(methoxycarbonyl)azetidin-3-yl)piperidin-4-yl)-1-methyl-1H-pyrazolo[3,4-b]pyridin-5-yl)-5-methylbenzo[d]thiazol-6-yl)acetic acid], the results for the pEC50 in data set [1] (setting [5]), in data set [3] (setting [6]) and in data set [4] (setting [7]) were 5.66, 5.96 and 7.92, respectively.
